Experimental data published in patent US20230020329A1, “Annelated 9-hydroxy-1,8-dioxo-1,3,4,8-tetrahydro-2H-pyrido[1,2-a]pyrazine-7-carboxamides as HIV integrase inhibitors, methods of preparation and application thereof” (priority 2019, published 2023).
In brackets after ≈: the same amount, converted by molar mass. Like-named read-outs stand apart in the source and are kept apart here.

How the values were obtained:
HIV [1] = test: EC50 reported in WO 2014/100323; type: cell-based; details: A4 vs BIC; A5 vs A6
Excerpt: Specifically, only two inhibitors—A4 and A5—are known to comprise a pyridin-2-ylmethyl moiety instead of a benzyl moiety [WO 2014/100323].

HIV [2] = details: read-out: EC50 in WO 2014/100323; cited from earlier work
HIV [3] = details: depending on the method of analysis; read-out: Inhibitory activity EC50 (literature); cited from earlier work
[4] = Pharmacokinetics in rat plasma, IV and oral; type: in vivo, male Sprague-Dawley rats; details: for Cmax: read-out: Cmax; for Tmax: read-out: Tmax
Protocol: The research was carried out on male Sprague-Dawley rats obtained from Charles River Laboratories (Germany). […] The age of the animals at the time of administration was 8-10 weeks. The animals were pre-catheterized so that all blood samples during the study of each substance could be taken from the same animals. Each substance was tested in 3 animals at each route of administration. The solution of test substances with a concentration of 0.2 mg/ml in 10% DMSO/10% Solutol/80% 0.05M N-methylglucamine was administered to rats intravenously in the tail vein at a dose of 1 mg/kg. Blood samples were collected at 5, 15, 30 min, 1, 2, 4, 8, and 24 hours after administration. Intragastric administration involved gavage using a solution with a concentration of 0.5 mg/ml in 0.5% methylcellulose at a dose of 5 mg/kg. Blood samples were collected at 15, 30 min, 1, 2, 4, 8, and 24 hours after administration. Blood (0.2 ml) was collected in polypropylene tubes containing 20 μl of 5% NaEDTA. Blood plasma was separated by centrifugation at 1500×g for 10 min and stored until testing at a temperature of −80° C. A pure acetonitrile-water (1:1) mixture (5 μl) was added to 45 μl of test samples. The samples were vortexed thoroughly for 10 seconds. Tolbutamide (100 μl) chilled to +4° C. (200 ng/ml in MeCN) was added to the samples and the mixture was vortexed. The samples were precipitated on ice at +4° C. for 15 minutes and then centrifuged at 2700 g for 10 min at +4° C. Supernatants (100 μl each) were transferred to a blank plate for HPLC/MS/MS analysis. The HPLC/MS/MS analysis was performed using an Agilent 1290 Infinity system coupled to an AB Sciex QTrap 6500 mass spectrometer. Pharmacokinetic analysis of plasma concentration vs time data was performed by a model-independent method using the Phoenix™ WinNonlin® 6.3 software (Pharsight Corp.). […]

[5] = Thermodynamic (shake-flask) solubility; type: physicochemical; details: for solubility at 24 h: thermodynamic from solid
Protocol: The test compound of general formula 1 or 2 (2 mg) was weighed into a glass vial. The pION universal buffer (0.5 ml) with pH 7.4 or deionized water was added to appropriate vials. The vials were tightly closed with a lid, placed on a rotating shaker, and incubated for 24 hours to balance the solution and the solid phase at the saturation point. Each resulting solution (200 μl) was taken (in duplicate) from the vials, placed in a 96-well MultiScreen Solubility Filter Plate (Millipore), and filtered using vacuum ([…]) into a polypropylene plate with a U-shaped bottom. If necessary, the filtrates were diluted with an appropriate buffer (water). Then, 120 μl of the filtarate (or a diluted filtrate) was transferred to a 96-well plate with a UV-transparent bottom and 60 μl/well of acetonitrile and 20 μl/well of DMSO were added and thoroughly mixed with a multichannel pipette (acetonitrile and DMSO were added to obtain a required composition of calibration standards, as described below). The optical density of the resulting solutions was measured on a multifunction Infinite 200 PRO plate reader in the wavelength range from 240 nm to 400 nm in steps of 10 nm. The value of ODλ for solutions was assessed at a wavelength chosen for plotting a calibration curve.
The concentration of a substance in the solution after the solubility test was evaluated using a calibration curve. A stock solution in DMSO with a concentration of 2 mg/ml was prepared from a separate sample. […] The range of final concentrations of the calibration curve was 0.2; 0.1; 0.05; 0.025; 0.0125; 0.00625, and 0 mg/ml. Calibration solutions were prepared in a 96-well UV plate as follows: 20 μl of a 10-fold stock solution in DMSO, 60 μl of acetonitrile, and 120 μl of the appropriate buffer were added to the well and stirred. The optical density of the resulting solutions was measured on a multifunction Infinite 200 PRO plate reader in the wavelength range from 240 nm to 400 nm with a step of 10 nm. The optimal wavelength typically corresponding to the absorption maximum was chosen, and a linear dependence of OD at a given wavelength on the concentration of the compound was obtained.
The concentration of the compound in the filtrate after the solubility test was calculated according to the formula:
shake-flask solubility=(ODλfiltrate−ODλblank)/(slope×1.67×filtrate dilution)
wherein slope means the slope of the calibration curve; 1.67 is the filtrate acetonitrile+DMSO dilution ratio; filtrate dilution is an additional dilution of the filtrate, if applicable.

[6] = male, Sprague-Dawley, rat plasma, IV 1 mg/kg
[7] = male, Sprague-Dawley, rat plasma, oral 5 mg/kg

For `O=C(NCc1ncc(F)cc1F)c1cn2c(c(O)c1=O)C(=O)N1[C@H]3CC[C@H](C3)[C@@H]1C2` [Compound A5, (1R, 4S, 12aR)-N-[(3,5-difluoropyridin-2-yl)methyl]-7-hydroxy-6,8-dioxo-1,2,3,4,6,8,12,12a-octahydro-1,4-methanodipyrido [1,2-a: 1′, 2′-d]pyrazine-9-carboxamide], the “Decrease in activity relative to the benzyl analogue (times lower)” value (HIV [1]) is given as “almost twofold decrease in activity” and the EC50 (HIV [2]) is given as 17.8 nM.
For `C[C@H]1CO[C@@H]2Cn3cc(C(=O)NCc4ccc(F)cc4F)c(=O)c(O)c3C(=O)N12` [CAB, Cabotegravir, reference compound], the EC50 (HIV [3]) is given as 0.25 to 3 nM, the bioavailability ([4]; male, Sprague-Dawley, plasma, rat, oral 5 mg/kg vs IV 1 mg/kg, F=(AUClast PO/5·AUClast IV)·100) is given as 8.8% and the AUC(0-inf) [4, 6] is given as 232 µg·h/mL. The AUC(0-t) [4, 6] was 141 µg·h/mL, the MRT last [4, 6] was 9.19 h and the half-life [4, 6] was 1100 min. For the same molecule, the Cmax [4, 6] was 17000 ng/mL, the Tmax [4, 6] was 0.08 h and the AUC(0-inf) [4, 7] was 158 µg·h/mL. It also gave an AUC(0-t) [4, 7] of 62.3 µg·h/mL, an MRT last [4, 7] of 8.05 h and a half-life [4, 7] of 1150 min. It also gave a concentration at 8 h ([4]; male, Sprague-Dawley, rat plasma, oral 5 mg/kg, 8 h, read-out: C8 h) of 4340 ng/mL, a concentration at 24 h ([4]; male, Sprague-Dawley, rat plasma, oral 5 mg/kg, 24 h, read-out: C24 h) of 1840 ng/mL and a Cmax [4, 7] of 5210 ng/mL. The Tmax [4, 7] was 4.67 h, the kel ([4]; rat plasma, IV 1 mg/kg) was 0.04 h⁻¹ and the kel ([4]; rat plasma, oral 5 mg/kg) was 0.04 h⁻¹. The solubility at 24 h ([5]; aqueous buffer, pION universal buffer pH 7.4, 24 h, read-out: Solubility, pH 7.4, value) was 5 µg/mL (≈ 12.3 µM), the “Solubility, water, value” ([5]; deionized water, 24 h) was 8 µg/mL (≈ 19.7 µM) and the solubility at 24 h ([5]; deionized water, water, read-out: Solubility in water) was 8 µg/mL (≈ 19.7 µM).
For `O=C(NCc1ncccc1C(F)(F)F)c1cn2c(c(O)c1=O)C(=O)N1[C@@H]3CC[C@@H](C3)O[C@H]1C2` [Compound A4, (2S, 5R, 13aS)-8-hydroxy-7,9-dioxo-N-{[3-(trifluoromethyl)pyridin-2-yl]methyl}-2,3,4,5,7,9,13,13a-octahydro-2,5-methanpyrido[1′, 2′: 4,5]pyrazino[2,1-b][1,3]oxazepine-10-carboxamide], the “Decrease in activity relative to the benzyl analogue (times lower)” value (HIV [1]) is listed as 13.3 and the EC50 (HIV [2]) is listed as 33.3 nM.
In the case of `O=C(NCc1c(F)cc(F)cc1F)c1cn2c(c(O)c1=O)C(=O)N1[C@H]3CC[C@H](C3)O[C@@H]1C2` [BIC, Bictegravir], the EC50 (HIV [3]) is given as 1 to 7.5 nM and the EC50 (HIV [2]) is given as 2.5 nM.
